Test results taken from ChEMBL document CHEMBL3407401, “Development of certain novel N-(2-(2-(2-oxoindolin-3-ylidene)hydrazinecarbonyl)phenyl)-benzamides and 3-(2-oxoindolin-3-ylideneamino)-2-substituted quinazolin-4(3H)-ones as CFM-1 analogs: design, synthesis, QSAR analysis and anticancer activity” (Eur J Med Chem, 2015).
Converted amounts (≈) assume the structure as drawn.

Experiments:
Daoy [1] = assay: Cytotoxicity against human DaOY cells assessed as inhibition of cell survival at 25 ug/ml after 24 hrs by MTT assay; assay type: functional
MDA-MB-231 [2] = assay: Cytotoxicity against human MDA-MB-231 cells assessed as inhibition of cell survival at 25 ug/ml after 24 hrs by MTT assay; assay type: functional; conditions: MDA-MB-231, 24 h
[3] = Cytotoxicity against human HuH7 cells assessed as inhibition of cell survival at 25 ug/ml after 24 hrs by MTT assay; assay type: functional; conditions: Huh-7, 24 h
[4] = Cytotoxicity against human UW228-2 cells assessed as inhibition of cell survival after 24 hrs by MTT assay; assay type: functional, cell-based; conditions: UW228-2, 24 h
HeLa [5] = assay: Cytotoxicity against human HeLa cells assessed as inhibition of cell survival at 25 ug/ml after 24 hrs by MTT assay; assay type: functional
MDA-MB-231 [6] = assay: Cytotoxicity against human MDA-MB-231 cells assessed as inhibition of cell survival after 24 hrs by MTT assay; assay type: functional, cell-based; conditions: MDA-MB-231, 24 h
[7] = Cytotoxicity against human UW228-2 cells assessed as inhibition of cell survival at 25 ug/ml after 24 hrs by MTT assay; assay type: functional; conditions: UW228-2, 24 h
Daoy [8] = assay: Cytotoxicity against human DaOY cells assessed as inhibition of cell survival after 24 hrs by MTT assay; assay type: functional, cell-based
[9] = Cytotoxicity against human HuH7 cells assessed as inhibition of cell survival after 24 hrs by MTT assay; assay type: functional, cell-based; conditions: Huh-7, 24 h
HeLa [10] = assay: Cytotoxicity against human HeLa cells assessed as inhibition of cell survival after 24 hrs by MTT assay; assay type: functional, cell-based

Structure (SMILES)	inhibition at 25 µg/mL (Daoy [1])	inhibition at 25 µg/mL (MDA-MB-231 [2])	inhibition at 25 µg/mL [3]	IC50 [4]	inhibition at 25 µg/mL (HeLa [5])	IC50 (MDA-MB-231 [6])	inhibition at 25 µg/mL [7]	IC50 (Daoy [8])	IC50 [9]	IC50 (HeLa [10])
Cc1cc(Br)cc2c1NC(=O)/C2=C1\SC(=S)NC1=O	64.8%	52.5%	61.8%	16.4 µg/mL (≈ 46.2 µM)	57.6%	19.7 µg/mL (≈ 55.5 µM)	51.4%	8.12 µg/mL (≈ 22.9 µM)	8.18 µg/mL (≈ 23 µM)	13.5 µg/mL (≈ 38 µM)
Cc1ccc2c(c1)/C(=N/NC(=O)c1ccccc1NC(=O)c1ccc([N+](=O)[O-])cc1)C(=O)N2	62.7%	40.8%	55.8%	9.62 µg/mL (≈ 21.7 µM)	46.1%		58.7%	11.9 µg/mL (≈ 26.7 µM)	19.3 µg/mL (≈ 43.5 µM)	
Cc1ccc(-c2nc3ccccc3c(=O)n2/N=C2\C(=O)Nc3ccccc32)cc1	41.4%	24.7%	2.9%		42.3%		9.3%			
Cc1ccc(C(=O)Nc2ccccc2C(=O)N/N=C2\C(=O)Nc3ccccc32)cc1	72.8%	46.8%	56.4%	6.06 µg/mL (≈ 15.2 µM)	30.4%		71.7%	3.94 µg/mL (≈ 9.89 µM)	5 µg/mL (≈ 12.5 µM)	
COc1ccc2c(c1)/C(=N/n1c(-c3ccc(C)cc3)nc3ccccc3c1=O)C(=O)N2	82.8%	35.4%	53.6%	20.8 µg/mL (≈ 50.7 µM)	68%		58.9%	3.61 µg/mL (≈ 8.8 µM)	22.8 µg/mL (≈ 55.6 µM)	9.89 µg/mL (≈ 24.1 µM)
Cc1ccc(C(=O)Nc2ccccc2C(=O)N/N=C2\C(=O)Nc3ccc([N+](=O)[O-])cc32)cc1	75.8%	30.2%	55.2%		26.8%		38.5%	6.61 µg/mL (≈ 14.9 µM)	11.6 µg/mL (≈ 26.2 µM)	
Cc1ccc(C(=O)Nc2ccccc2C(=O)N/N=C2\C(=O)Nc3ccc(C)cc32)cc1	49.1%	37.7%	38%		46.5%		23.2%			
O=C1Nc2ccc([N+](=O)[O-])cc2/C1=N/NC(=O)c1ccccc1NC(=O)c1ccc([N+](=O)[O-])cc1	31.9%	0%	8.2%		14.7%		4.8%			
Cc1ccc2c(c1)/C(=N/n1c(-c3cccs3)nc3ccccc3c1=O)C(=O)N2	59.4%	29.5%	32.9%		57.8%		32.1%	19 µg/mL (≈ 49.1 µM)		19.3 µg/mL (≈ 49.9 µM)
O=C1Nc2ccccc2/C1=N/NC(=O)c1ccccc1NC(=O)c1ccc([N+](=O)[O-])cc1	79.1%	44.9%	48.6%	20 µg/mL (≈ 46.6 µM)	55%		51.8%	2.72 µg/mL (≈ 6.33 µM)		16.5 µg/mL (≈ 38.5 µM)
COc1ccc2c(c1)/C(=N/n1c(-c3cccs3)nc3ccccc3c1=O)C(=O)N2	80.5%	13.6%	62.7%	21.4 µg/mL (≈ 53.2 µM)	67%		56.4%	3.25 µg/mL (≈ 8.08 µM)	19.9 µg/mL (≈ 49.5 µM)	11 µg/mL (≈ 27.3 µM)
Cc1ccc(C(=O)Nc2ccccc2C(=O)N/N=C2\C(=O)Nc3ccc(Cl)cc32)cc1	77.1%	85%	84.1%	6.87 µg/mL (≈ 15.9 µM)	86.7%	5.95 µg/mL (≈ 13.7 µM)	88.7%	1.86 µg/mL (≈ 4.3 µM)	3.2 µg/mL (≈ 7.39 µM)	6.52 µg/mL (≈ 15.1 µM)
Cc1ccc(-c2nc3ccccc3c(=O)n2/N=C2\C(=O)Nc3ccc([N+](=O)[O-])cc32)cc1	58.8%	23.6%	0%		52.9%		22.8%	11.7 µg/mL (≈ 27.4 µM)		21.1 µg/mL (≈ 49.7 µM)
O=C1Nc2ccccc2/C1=N/n1c(-c2cccs2)nc2ccccc2c1=O	69.7%	10.7%	0%		36.2%		0%	5.4 µg/mL (≈ 14.5 µM)		
O=C1Nc2ccc(Cl)cc2/C1=N/NC(=O)c1ccccc1NC(=O)c1ccc([N+](=O)[O-])cc1	36.6%	35.5%	43.1%		31%		41.6%			
COc1ccc2c(c1)/C(=N/NC(=O)c1ccccc1NC(=O)c1ccc(C)cc1)C(=O)N2	77.2%	59.4%	81.6%	5.82 µg/mL (≈ 13.6 µM)	80.3%	10.9 µg/mL (≈ 25.4 µM)	84.8%	4.42 µg/mL (≈ 10.3 µM)	4.6 µg/mL (≈ 10.7 µM)	8.09 µg/mL (≈ 18.9 µM)
Cc1ccc(-c2nc3ccccc3c(=O)n2/N=C2\C(=O)Nc3ccc(Cl)cc32)cc1	75.4%	78.1%	83.3%	5.7 µg/mL (≈ 13.7 µM)	80.8%	4.8 µg/mL (≈ 11.6 µM)	88%	1.46 µg/mL (≈ 3.52 µM)	3.76 µg/mL (≈ 9.06 µM)	8.6 µg/mL (≈ 20.7 µM)
COc1ccc2c(c1)/C(=N/NC(=O)c1ccccc1NC(=O)c1ccc([N+](=O)[O-])cc1)C(=O)N2	11.1%	34.8%	33.2%		16.3%		24.5%			
Cc1ccc(-c2nc3ccccc3c(=O)n2/N=C2\C(=O)Nc3ccc(C)cc32)cc1	47%	34.3%	7.2%		42.8%		2.1%			
O=C1Nc2ccc(Cl)cc2/C1=N/n1c(-c2cccs2)nc2ccccc2c1=O	69.3%	6.1%	0%		69.7%		28.4%	15.7 µg/mL (≈ 38.5 µM)		17 µg/mL (≈ 41.7 µM)
O=C1Nc2ccc([N+](=O)[O-])cc2/C1=N/n1c(-c2cccs2)nc2ccccc2c1=O	18.4%	0%	0%		0%		0%			
